According to PMC9962921, “Interlaboratory Study to Evaluate a Testing Protocol for the Safety of Food Packaging Coatings” (Toxics, 2023):
Read-outs that look alike come from different tables or passages of the source.

How the values were obtained:
[1] = molecular target: T1, Aryl hydrocarbon Receptor (AhR) (Rattus norvegicus, UniProt P41738); assay: AhR (PAH) CALUX reporter gene assay; settings: EC50 AhR reference compound (mean)
T1 sequence (P41738 10-853): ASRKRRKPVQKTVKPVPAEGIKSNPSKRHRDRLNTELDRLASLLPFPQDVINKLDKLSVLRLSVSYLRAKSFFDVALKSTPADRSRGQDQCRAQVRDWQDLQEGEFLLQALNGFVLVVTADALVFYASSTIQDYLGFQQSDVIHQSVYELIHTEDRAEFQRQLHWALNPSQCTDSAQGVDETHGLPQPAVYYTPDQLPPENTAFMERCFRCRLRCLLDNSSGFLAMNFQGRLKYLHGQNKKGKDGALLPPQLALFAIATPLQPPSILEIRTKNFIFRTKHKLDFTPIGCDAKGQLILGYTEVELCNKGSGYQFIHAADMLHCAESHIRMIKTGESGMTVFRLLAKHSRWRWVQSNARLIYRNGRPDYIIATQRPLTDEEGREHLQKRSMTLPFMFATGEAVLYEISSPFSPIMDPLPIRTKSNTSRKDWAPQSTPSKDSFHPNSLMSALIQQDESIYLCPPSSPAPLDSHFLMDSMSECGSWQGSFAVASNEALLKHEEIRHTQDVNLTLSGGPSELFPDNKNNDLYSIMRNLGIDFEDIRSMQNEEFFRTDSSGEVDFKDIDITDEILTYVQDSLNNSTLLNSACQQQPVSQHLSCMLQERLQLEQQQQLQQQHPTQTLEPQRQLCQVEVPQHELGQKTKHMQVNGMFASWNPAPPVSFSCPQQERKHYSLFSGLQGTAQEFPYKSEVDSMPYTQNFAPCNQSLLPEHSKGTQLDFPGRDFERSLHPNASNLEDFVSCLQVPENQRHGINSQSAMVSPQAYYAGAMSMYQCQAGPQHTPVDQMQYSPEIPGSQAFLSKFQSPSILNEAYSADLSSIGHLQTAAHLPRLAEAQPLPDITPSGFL
Experimental: Briefly, cells were seeded in a 96-well plate (VWR, Dietikon, Switzerland) and incubated for 24 h at 37 °C, 5% CO2 and 100% humidity. […] In addition, a serial dilution of each of the different migrates were exposed in triplicates. After 24 h of exposure for cytotoxicity, ERα, AR and 4 h of exposure for poly-aromatic hydrocarbons (PAH) of exposure, the luciferase activity is measured with a luminometer plate reader (Mithras, Berthold, Germany).
Relative luminescence units obtained were processed as described by proprietary calculation template (BDS) (Amsterdam, The Netherlands). Receptor-binding activation was quantified as the amount of relative luciferase units (RLU) emitted after samples’ exposure. The signal is proportional to the amount of ligand-specific receptor-binding activation. After normalization to solvent control (DMSO) the percentage of relative induction (RI) or relative inhibition (RInh) was calculated for the selected nuclear receptors and the cell viability. The samples were then expressed as percentage of the maximum reference compound response. All dose responses and dilutions were performed in technical triplicates. […] For the PAH CALUX bioassay, the threshold level was set as 10%. […] Dose–response obtained between laboratories C and D was compared.

[2] = molecular target: T1, Aryl hydrocarbon Receptor (AhR); settings: read-out: EC50 standard range, AhR reference compound; historical range; ref BDS BioDetection Systems historical data; cited from earlier work

In the case of c1ccc2c(c1)cc1ccc3cccc4ccc2c1c34 [Benzo(a)pyrene, benzo[a]pyrene], the EC50 ([1]; LAB C) is listed as 3.3 nM, the EC50 ([1]; LAB D) is listed as 7.2 nM and the EC50 [2] is listed as 1.6 to 16 nM.
